Earlier results on one molecule are cited in US20260373165A1, “PHARMACEUTICAL COMBINATIONS AND COMPOSITIONS, AND METHODS OF USE THEREOF” (SHENZHEN HIGHTIDE BIOPHARMACEUTICAL LTD., priority 2022, published 2026).

For the data set the following is noted: after 52 weeks of treatment, lower dose of semaglutide; cited from earlier work.

As for `Cc1ccc([C@@H]2O[C@H](CO)[C@@H](O)[C@H](O)[C@H]2O)cc1Cc1ccc(-c2ccc(F)cc2)s1` [cangliflozin, canagliflozin], the “average decrease in total fat mass” value is listed as 7.8% and the “average decrease in total muscle mass” value is reported as 2.9%.
